# Test results reported in US11529318B2, “Devices and methods for local delivery of tacrolimus” (UNIVERSITY OF PITTSBURGH—OF THE COMMONWEALTH SYSTEM OF …, priority 2017, dated 2022).
# pIC50: −log10 of the molar value.
# What was measured:
# [1] = system: retinal ganglion cells (RGCs); assay: RGC viability analysis (calcein/propidium iodide live/dead kit); type: cell-based, rat; conditions: for pIC50: primary P3 rat RGCs, 3 days in vitro, 0.1 to 100 μM
# Description: (§1) Retinal ganglion cell isolation. RGCs were isolated from female and male postnatal day three (P3) Sprague-Dawley rat pups, purified by immunopanning, and cultured in NB-SATO media as previously described (Barres, Silverstein et al. 1988). The RGCs were seeded (5×10^3/cm^2) on cell culture plates coated with poly-D-lysine (70 kDa, 10 μg/mL; Sigma-Aldrich Corp., St. Louis, Mo., USA) and laminin (2 μg/mL, Sigma-Aldrich Corp.), and maintained at 37° C. in 10% CO2 for 3 days.
# (§2) RGC viability analysis. To analyze RGC viability a calcein and propidium iodide based live/dead kit was used after 3 DIV per the manufacturer's instructions (Life Technologies, R37601). Briefly, RGC cultures were incubated in the live/dead reagent for 15 minutes at room temperature and five random fields per well were imaged at 20× using standard epi-fluorescence fluorescein and rhodamine filter sets (Zeiss, Axio Observer). Live and dead cells were analyzed using ImageJ (National Institutes of Health, Bethesda, Md., USA). All graphical data represents three independent experimental repeats.
# [2] = as above; type: cell-based, rat; conditions: both sexes, Sprague-Dawley, rat, primary retinal ganglion cells (RGCs), 3 days in vitro
# Description: as §1, §2
# [3] = system: glial fibrillary acidic protein (GFAP) expression; assay: GFAP immunohistochemistry of optic nerve after optic nerve crush; type: in vivo, Sprague-Dawley rats; conditions: 14 days after optic nerve crush, systemic tacrolimus treatment, compared to uncrushed controls
# Description: Optic nerve ischemia and PEUU-Tac matrix application. Animals were anesthetized by intraperitoneal injection of 45:10 mg/kg ketamine/xylazine cocktail. Once anaesthetized, the optic nerve was exposed by making a small incision and then creating a nearly bloodless plane through the conjunctiva by blunt dissection with #5 forceps. The surrounding muscle and connective tissue around the optic nerve were then gently separated until the optic nerve was exposed. Using a Yasagril aneurysm clip, the right optic nerve was clamped ˜2 mm behind the globe for 10 seconds (Sarikcioglu, Demir et al. 2007). After removing the clip, ophthalmic artery integrity was confirmed by visualization. For some animals, the optic nerve sheath was fenestrated at the injury site by making an 1-2 mm incision. For animals receiving PEUU-Tac, a 1×5 mm section cut from a 10 mg PEUU-Tac matrix was sutured around the injury site and then secured by suturing to the outer sheath. After each optic nerve procedure, the conjunctiva was sutured and antibiotic ointment (Gentamicin, Bausch & Lomb, Tampa, Fla.) was applied to the eye. In total, twenty-eight animals received acute optic nerve ischemia to the right optic nerve with or without a PEUU-Tac wrap.
# Immunohistochemistry. […]
structure (smiles),measurement,setting,value
C=CC[C@@H]1/C=C(\C)C[C@H](C)C[C@H](OC)[C@H]2O[C@@](O)(C(=O)C(=O)N3CCCC[C@H]3C(=O)O[C@H](/C(C)=C/[C@@H]3CC[C@@H](O)[C@H](OC)C3)[C@H](C)[C@@H](O)CC1=O)[C@H](C)C[C@@H]2OC [tacrolimus],increase in RGC viability versus EtOH vehicle (70%),[1]; 0.5 μM tacrolimus,17.4%
same,pIC50,"[1]; Rattus norvegicus, 72 h",4.62
same,effect of dosage on neuron survival (live/dead study),[1]; discussion statement,no significant effect
same,pIC50,[1],4.60
same,"viability at 3 days, 0.5 μM",[2]; 0.5 μM tacrolimus,87.4%
same,"viability at 3 days, 50 μM",[2]; 50 μM tacrolimus,0%
same,GFAP expression in optic nerve,[3],did not cause significant GFAP expression
